Assays:
[1] = Aqueous solubility (UV spectrophotometry); format: physicochemical; conditions: water, thermodynamic from solid, general statement
Protocol: The aqueous solubility (reported above) of Form I of ODV succinate was determined according to the following procedure. Materials • Spectrophotometer—Capable of isolating a bandwidth of 2 nm or less at the wavelength of maximum absorbance, and of measuring absorbances in the 0.0 to 1.0 range with a precision of 0.01. A Cary Model 219 spectrophotometer or equivalent is suitable. • Cells—Silica, 1 cm. • Filters—0.45 micron Nylon filters which are chemical resistant or equivalent • Bottles—Glass screw top bottles having a 15 mL or greater capacity. • Shaker—A lateral shaker, wrist shaker, or a vibrator which will not generate heat is suitable. A. For Non UV Absorbing Solvents • 1. To a bottle weigh an amount of sample equivalent to approximately 1½ times the solubility. • 2. […] Agitate the bottles at ambient room temperature for at least 16 hours. • 4. Obtain a clear filtrate layer by either centrifugation of filtration being careful to avoid evaporation. • 5. Quantitatively transfer the solution to a volumetric flask and dilute to volume with water. • 6. Blank the instrument for water. • 7. Make quantitative dilutions to arrive at a suitable concentration for measurement. […] Quantitatively transfer to a volumetric flask with the same solvent used in preparing the standard solution. • 6. Make dilutions as necessary to obtain a concentration suitable for quantitative measurement. […]

[2] = Stability in perfusion buffer and jejunal fluids; format: in vitro ADME, rat; conditions: for relative percentage remaining of HPLC peak area: 37° C.
Protocol: The stability of ODV succinate or fumarate in the solutions of blank perfusion buffer (Pβ), and jejunal fluids (perfusion buffer collected by washing the isolated jejunal segment, pH=6.8) was determined at 37° C. for up to 6 hours.

## CN(C)CC(c1ccc(O)cc1)C1(O)CCCCC1.O=C(O)CCC(=O)O (stereo not shown) [ODV succinate, O-desmethyl-venlafaxine succinate]
[1]
  solubility: > 30 mg/mL
[2]; Blank Perfusion Buffer, 0 hours
  relative percentage remaining of HPLC peak area: 100.0%
[2]; Blank Perfusion Buffer, 2 hours
  relative percentage remaining of HPLC peak area: 99.9%
[2]; Blank Perfusion Buffer, 3 hours
  relative percentage remaining of HPLC peak area: 100.3%
[2]; Blank Perfusion Buffer, 6 hours
  relative percentage remaining of HPLC peak area: 99.9%
[2]; Intestinal fluid (pH 6.8, total protein approx. 0.2 mg/ml), 0 hours
  relative percentage remaining of HPLC peak area: 100.0%
[2]; Intestinal fluid (pH 6.8, total protein approx. 0.2 mg/ml), 2 hours
  relative percentage remaining of HPLC peak area: 99.6%
[2]; Intestinal fluid (pH 6.8, total protein approx. 0.2 mg/ml), 3 hours
  relative percentage remaining of HPLC peak area: 99.8%
[2]; Intestinal fluid (pH 6.8, total protein approx. 0.2 mg/ml), 6 hours
  relative percentage remaining of HPLC peak area: 100.1%
[2]; pH 6.8, 37° C., up to 6 hours
  stability in blank perfusion buffer and jejunal fluids: no apparent degradation/metabolism

— patent US7291347B2, “Succinate salt of O-desmethyl-venlafaxine” (Wyeth, priority 2001, dated 2007)
